Data on two compounds can be found in patent publication US20180055055A1, “FOLIAR APPLICATIONS FOR CONTROLLING LEPIDOPTERAN PESTS FOR FRUITS AND/OR FRUIT TREES” (priority 2016, published 2018).

The structures appear in SMILES notation.

This assay concerns Grapholyta molesta. Kind of assay: Open field trial, foliar application on peach trees against Grapholyta molesta. Type of assay: in vivo. The settings on record: timing ABC; for Alive larvae per 100 fruit / Deep holes per 100 fruit: 12 days after final application; for % control on alive larvae / % control on deep holes: Abbott equation. The source says:
Another open field trial is set up to evaluate the efficacy and selectivity of Compound A against Grapholyta molesta for peach trees (Amiga variety). The trial is designed as randomized complete block with four replications. Compound A is applied only twice (Timing A, and B), while all other treatments are applied three times (Timing A, B and C) where each application is about one week apart.
Treatments are sprayed using a mist spray multi plot equipment, designed for efficacy trials with four independent series of 8 nozzles (ALBUZ, ATR 80 Yellow) and calibrated to apply a spray volume of 1200 L/ha at a pressure of 450 Kpa. The applications target the egg lay stage of second generation at the crop growth stage of BBCH 73-75, 75-76 and 76-77 respectively for timing A, B and C. At twelve days after the final application, the efficacy assessment is carried out on 100 fruits/plot assessing the number of damaged fruits (distinct as superficial stings and deep holes) and the number of alive larvae.
Results are shown in Table 3, where data assessed are also transformed to a percentage of control using Abbott equation. Data are examined according to the Bartlett's test for homogeneity of variance. The treatment means of the assessment data are calculated and compared using Tukey's HSD test (p=0.05). In the untreated there are 18 alive larvae found in 100 fruits/plot, which represented a high infestation situation

Where [1] appears, read: 680 g ai/ha, first listed formulation (Table 3 order: (1) CS 200 g ai/L).
[2] abbreviates: 680 g ai/ha, second listed formulation (Table 3 order: (2) EC 225 g ai/L).
Setting [3] is: 850 ai/ha, second listed formulation (Table 3 order: (2) EC 225 g ai/L).
The mark [4] stands for this setting: 850 g ai/ha, first listed formulation (Table 3 order: (1) CS 200 g ai/L).
[5] abbreviates: 1020 g ai/ha, first listed formulation (Table 3 order: (1) CS 200 g ai/L).
Where [6] appears, read: 1020 g ai/ha, second listed formulation (Table 3 order: (2) EC 225 g ai/L).

Turning to `CCOP(=S)(OCC)Oc1nc(Cl)c(Cl)cc1Cl` [Chlorpyriphos-Ethyl], where the note is “1080 g ai/ha, EC 480 g ai/L”, the “Alive larvae per 100 fruit” value turned out to be 0.0 b per 100 fruit, the “Deep holes per 100 fruit” value amounted to 0 b per 100 fruit, the “% control on alive larvae” value is 100.0 a % and the “% control on deep holes” value stood at 100.0 a %.
Consider `COP(=S)(OC)Oc1nc(Cl)c(Cl)cc1Cl` [Chlorpyriphos-Methyl], for which the “Alive larvae per 100 fruit” value under setting [1] stood at 0.0 b per 100 fruit; the “Alive larvae per 100 fruit” value under setting [2] was determined as 0.0 b per 100 fruit; the “Alive larvae per 100 fruit” value under setting [3] is 0.0 b per 100 fruit; the “Alive larvae per 100 fruit” value under setting [4] came out at 0.0 b per 100 fruit; the “Alive larvae per 100 fruit” value under setting [5] amounted to 0.0 b per 100 fruit; the “Alive larvae per 100 fruit” value under setting [6] came to 0.0 b per 100 fruit. Moreover, the “Deep holes per 100 fruit” value is, setting by setting: under setting [1], 3 b per 100 fruit; under setting [2], 3 b per 100 fruit; under setting [3], 2 b per 100 fruit; under setting [4], 2 b per 100 fruit; under setting [5], 0 b per 100 fruit; under setting [6], 0 b per 100 fruit. The “% control on alive larvae” value reads like this: under setting [1], 100.0 a %; under setting [2], 100.0 a %; under setting [3], 100.0 a %; under setting [4], 100.0 a %; under setting [5], 100.0 a %; under setting [6], 100.0 a %. In addition, the “% control on deep holes” value under setting [1] is recorded as 81.3 c %; the “% control on deep holes” value under setting [2] was 85.8 bc %; the “% control on deep holes” value under setting [3] amounted to 93.0 bc %; the “% control on deep holes” value under setting [4] is recorded as 93.4 abc %; the “% control on deep holes” value under setting [5] turned out to be 100.0 a %; the “% control on deep holes” value under setting [6] worked out at 100.0 a %.
